Where two headings read alike, the source gives them in different places. Each block holds one compound with its values, some of them ahead of it.
Legend:
SW1990 = assay: Cell proliferation inhibition assay (MTT); type: cell-based; conditions: Homo sapiens; SW1990; MTT, 72 hours; read-out: Proliferation inhibitory activity IC50
Lyn = Lyn (Homo sapiens (Human), UniProt P07948); assay: Kinase inhibition assay (KinaseProfiler, 33P-ATP); type: biochemical; conditions: for remaining activity at 10 µM: Lyn(h), read-out: The percentage of the remaining active protein
Lyn, sequence (P07948 whole entry): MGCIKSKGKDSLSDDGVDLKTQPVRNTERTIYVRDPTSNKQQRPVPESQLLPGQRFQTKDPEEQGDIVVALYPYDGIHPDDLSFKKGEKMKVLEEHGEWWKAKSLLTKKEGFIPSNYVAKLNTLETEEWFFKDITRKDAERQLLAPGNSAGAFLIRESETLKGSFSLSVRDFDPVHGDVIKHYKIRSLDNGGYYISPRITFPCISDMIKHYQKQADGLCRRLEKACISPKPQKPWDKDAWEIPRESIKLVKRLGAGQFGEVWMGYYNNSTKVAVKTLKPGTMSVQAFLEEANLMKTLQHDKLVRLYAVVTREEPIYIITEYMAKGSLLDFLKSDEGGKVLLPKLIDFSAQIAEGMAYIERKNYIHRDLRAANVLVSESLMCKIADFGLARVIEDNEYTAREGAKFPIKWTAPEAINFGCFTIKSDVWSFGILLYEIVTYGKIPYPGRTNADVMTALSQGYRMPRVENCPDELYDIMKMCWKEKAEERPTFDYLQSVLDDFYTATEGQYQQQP

JNK1α1(h) = JNK1α1(h) (Homo sapiens (Human), UniProt P45983); assay: Kinase inhibition assay (KinaseProfiler, 33P-ATP); type: biochemical; conditions: read-out: The percentage of the remaining active protein
JNK1α1(h), sequence (P45983 other isoform, or with tags, fused parts or gaps): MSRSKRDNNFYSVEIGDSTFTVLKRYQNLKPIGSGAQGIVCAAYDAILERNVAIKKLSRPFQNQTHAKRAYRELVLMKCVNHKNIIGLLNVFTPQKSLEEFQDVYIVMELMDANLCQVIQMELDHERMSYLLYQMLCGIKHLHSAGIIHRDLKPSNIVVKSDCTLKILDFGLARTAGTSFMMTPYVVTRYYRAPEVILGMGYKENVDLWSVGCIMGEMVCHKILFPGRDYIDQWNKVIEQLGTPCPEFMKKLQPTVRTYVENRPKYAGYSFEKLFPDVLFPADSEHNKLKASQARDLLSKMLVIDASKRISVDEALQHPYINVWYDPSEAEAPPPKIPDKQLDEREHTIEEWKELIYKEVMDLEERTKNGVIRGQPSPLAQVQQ

BT474 = assay: Cell proliferation inhibition assay (MTT); type: cell-based; conditions: Homo sapiens, BT-474; BT474; MTT, 72 hours; read-out: Proliferation inhibitory activity IC50
TBK1(h) = TBK1(h) (Homo sapiens (Human), UniProt Q9UHD2); assay: Kinase inhibition assay (KinaseProfiler, 33P-ATP); type: biochemical; conditions: read-out: The percentage of the remaining active protein
TrkA = TrkA (Homo sapiens (Human), UniProt P04629); assay: Kinase inhibition assay (KinaseProfiler, 33P-ATP); type: biochemical; conditions: TrkA(h), read-out: The percentage of the remaining active protein
DDR1 = DDR1 (Homo sapiens (Human), UniProt Q08345); assay: Kinase inhibition assay (KinaseProfiler, 33P-ATP); type: biochemical; conditions: for IC50: DDR1, ATP at Km
DDR1, sequence (Q08345 19-913): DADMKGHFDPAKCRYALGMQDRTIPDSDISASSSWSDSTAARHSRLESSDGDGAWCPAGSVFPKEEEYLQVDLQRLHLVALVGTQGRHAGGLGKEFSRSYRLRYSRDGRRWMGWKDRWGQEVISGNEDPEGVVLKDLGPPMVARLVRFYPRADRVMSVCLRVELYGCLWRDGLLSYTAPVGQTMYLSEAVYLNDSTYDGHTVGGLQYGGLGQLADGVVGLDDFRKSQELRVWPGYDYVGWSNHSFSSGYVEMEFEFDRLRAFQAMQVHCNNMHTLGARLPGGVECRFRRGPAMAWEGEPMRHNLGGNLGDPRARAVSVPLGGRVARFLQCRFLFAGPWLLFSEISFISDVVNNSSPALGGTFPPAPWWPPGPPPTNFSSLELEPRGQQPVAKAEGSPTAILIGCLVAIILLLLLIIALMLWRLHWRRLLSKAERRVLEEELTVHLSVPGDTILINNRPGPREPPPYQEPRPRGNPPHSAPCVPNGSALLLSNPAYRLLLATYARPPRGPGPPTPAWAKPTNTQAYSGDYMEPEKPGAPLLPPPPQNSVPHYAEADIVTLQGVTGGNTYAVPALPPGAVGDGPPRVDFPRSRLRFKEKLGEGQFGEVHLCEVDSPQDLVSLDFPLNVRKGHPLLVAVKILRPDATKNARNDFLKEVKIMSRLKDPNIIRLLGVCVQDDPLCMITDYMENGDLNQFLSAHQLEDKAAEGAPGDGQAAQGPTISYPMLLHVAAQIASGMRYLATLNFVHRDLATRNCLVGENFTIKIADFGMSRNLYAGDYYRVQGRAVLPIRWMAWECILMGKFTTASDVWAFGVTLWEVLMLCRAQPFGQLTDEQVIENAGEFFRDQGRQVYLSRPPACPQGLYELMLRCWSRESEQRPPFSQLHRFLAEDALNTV

Yes = Yes (Homo sapiens (Human), UniProt P07947); assay: Kinase inhibition assay (KinaseProfiler, 33P-ATP); type: biochemical; conditions: for remaining activity at 10 µM: Yes(h), read-out: The percentage of the remaining active protein; for IC50: Yes, ATP at Km
Yes, sequence (P07947 whole entry): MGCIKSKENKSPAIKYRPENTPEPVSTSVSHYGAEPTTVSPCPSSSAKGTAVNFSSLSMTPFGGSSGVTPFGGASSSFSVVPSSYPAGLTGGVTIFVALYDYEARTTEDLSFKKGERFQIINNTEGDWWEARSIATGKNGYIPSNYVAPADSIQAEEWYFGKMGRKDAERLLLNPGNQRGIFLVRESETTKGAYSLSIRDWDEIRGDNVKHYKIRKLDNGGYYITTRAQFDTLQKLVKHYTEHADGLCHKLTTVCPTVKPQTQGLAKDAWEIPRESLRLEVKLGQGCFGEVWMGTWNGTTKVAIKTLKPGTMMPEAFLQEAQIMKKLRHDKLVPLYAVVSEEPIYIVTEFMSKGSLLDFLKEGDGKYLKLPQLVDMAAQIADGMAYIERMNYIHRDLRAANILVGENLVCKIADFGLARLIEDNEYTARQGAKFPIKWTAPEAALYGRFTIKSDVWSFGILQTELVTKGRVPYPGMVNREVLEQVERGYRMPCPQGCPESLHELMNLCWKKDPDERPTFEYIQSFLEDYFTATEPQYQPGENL

Met(h) = Met(h) (Homo sapiens (Human), UniProt P08581); assay: Kinase inhibition assay (KinaseProfiler, 33P-ATP); type: biochemical; conditions: read-out: The percentage of the remaining active protein
EphA8(h) = EphA8(h) (Homo sapiens (Human), UniProt P29322); assay: Kinase inhibition assay (KinaseProfiler, 33P-ATP); type: biochemical; conditions: read-out: The percentage of the remaining active protein
Axl = Axl (Homo sapiens (Human), UniProt P30530); assay: Kinase inhibition assay (KinaseProfiler, 33P-ATP); type: biochemical; conditions: Axl(h), read-out: The percentage of the remaining active protein
ALK(h) = ALK(h) (Homo sapiens (Human), UniProt Q9UM73); assay: Kinase inhibition assay (KinaseProfiler, 33P-ATP); type: biochemical; conditions: read-out: The percentage of the remaining active protein
MEK1(h) = MEK1(h) (Homo sapiens (Human), UniProt Q02750); assay: Kinase inhibition assay (KinaseProfiler, 33P-ATP); conditions: read-out: The percentage of the remaining active protein
EphB4 = EphB4 (Homo sapiens (Human), UniProt P54760); assay: Kinase inhibition assay (KinaseProfiler, 33P-ATP); type: biochemical
CFPAC = assay: Cell proliferation inhibition assay (MTT); type: cell-based; conditions: Homo sapiens; CFPAC; MTT, 72 hours; read-out: Proliferation inhibitory activity IC50
FAK(h) = FAK(h) (Homo sapiens (Human), UniProt Q05397); assay: Kinase inhibition assay (KinaseProfiler, 33P-ATP); type: biochemical; conditions: read-out: The percentage of the remaining active protein
CDK7 = CDK7 (Homo sapiens (Human), UniProt P50613); assay: Kinase inhibition assay (KinaseProfiler, 33P-ATP); type: biochemical; conditions: read-out: The percentage of the remaining active protein
Itk(h) = Itk(h) (Homo sapiens (Human), UniProt Q08881); assay: Kinase inhibition assay (KinaseProfiler, 33P-ATP); type: biochemical; conditions: read-out: The percentage of the remaining active protein
A549 = assay: Cell proliferation inhibition assay (MTT); type: cell-based; conditions: Homo sapiens; A549; MTT, 72 hours; read-out: Proliferation inhibitory activity IC50
ErbB2 = ErbB2 (Homo sapiens (Human), UniProt P04626); assay: Kinase inhibition assay (KinaseProfiler, 33P-ATP); type: biochemical; conditions: for remaining activity at 10 µM: ErbB2(h), read-out: The percentage of the remaining active protein; for IC50: ErbB2, ATP at Km
ErbB2, sequence (P04626 23-1255): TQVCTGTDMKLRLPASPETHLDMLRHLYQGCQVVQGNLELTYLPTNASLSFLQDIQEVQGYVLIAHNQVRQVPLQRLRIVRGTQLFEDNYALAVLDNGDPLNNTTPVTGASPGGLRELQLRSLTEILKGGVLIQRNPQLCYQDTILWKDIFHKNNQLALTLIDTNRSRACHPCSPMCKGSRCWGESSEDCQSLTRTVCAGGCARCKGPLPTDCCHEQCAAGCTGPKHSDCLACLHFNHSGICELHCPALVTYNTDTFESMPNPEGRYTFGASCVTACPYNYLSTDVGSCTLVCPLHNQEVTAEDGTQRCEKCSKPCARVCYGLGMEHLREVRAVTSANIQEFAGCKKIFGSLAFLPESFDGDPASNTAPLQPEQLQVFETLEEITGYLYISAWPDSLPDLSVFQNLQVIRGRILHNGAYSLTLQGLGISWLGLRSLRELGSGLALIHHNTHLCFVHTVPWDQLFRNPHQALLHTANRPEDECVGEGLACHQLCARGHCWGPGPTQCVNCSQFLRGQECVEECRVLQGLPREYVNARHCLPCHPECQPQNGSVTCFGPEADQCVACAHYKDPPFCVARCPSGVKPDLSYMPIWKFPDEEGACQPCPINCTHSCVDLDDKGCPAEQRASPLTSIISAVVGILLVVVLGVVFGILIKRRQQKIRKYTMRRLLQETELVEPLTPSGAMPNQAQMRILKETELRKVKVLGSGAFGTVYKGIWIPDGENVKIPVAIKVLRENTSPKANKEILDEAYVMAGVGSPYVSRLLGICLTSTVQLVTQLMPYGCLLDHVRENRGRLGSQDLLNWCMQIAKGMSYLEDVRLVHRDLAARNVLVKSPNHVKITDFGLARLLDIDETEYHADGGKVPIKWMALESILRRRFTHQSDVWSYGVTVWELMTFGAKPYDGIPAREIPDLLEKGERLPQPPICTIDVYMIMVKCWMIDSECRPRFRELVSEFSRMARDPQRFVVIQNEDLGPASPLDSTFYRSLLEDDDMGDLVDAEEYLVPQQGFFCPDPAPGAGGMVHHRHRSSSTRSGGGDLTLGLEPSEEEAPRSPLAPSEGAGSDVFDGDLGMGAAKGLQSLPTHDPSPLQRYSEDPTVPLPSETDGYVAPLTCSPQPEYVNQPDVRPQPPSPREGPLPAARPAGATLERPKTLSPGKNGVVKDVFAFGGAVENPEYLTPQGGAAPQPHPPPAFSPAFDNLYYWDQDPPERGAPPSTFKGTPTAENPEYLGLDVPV

PKBα(h) = PKBα(h) (Homo sapiens (Human), UniProt P31749); assay: Kinase inhibition assay (KinaseProfiler, 33P-ATP); type: biochemical; conditions: read-out: The percentage of the remaining active protein
RIPK2(h) = RIPK2(h) (Homo sapiens (Human), UniProt O43353); assay: Kinase inhibition assay (KinaseProfiler, 33P-ATP); type: biochemical; conditions: read-out: The percentage of the remaining active protein
KDR = KDR (Homo sapiens (Human), UniProt P35968); assay: Kinase inhibition assay (KinaseProfiler, 33P-ATP); type: biochemical; conditions: for remaining activity at 10 µM: KDR(h), read-out: The percentage of the remaining active protein
KDR, sequence (P35968 20-1356): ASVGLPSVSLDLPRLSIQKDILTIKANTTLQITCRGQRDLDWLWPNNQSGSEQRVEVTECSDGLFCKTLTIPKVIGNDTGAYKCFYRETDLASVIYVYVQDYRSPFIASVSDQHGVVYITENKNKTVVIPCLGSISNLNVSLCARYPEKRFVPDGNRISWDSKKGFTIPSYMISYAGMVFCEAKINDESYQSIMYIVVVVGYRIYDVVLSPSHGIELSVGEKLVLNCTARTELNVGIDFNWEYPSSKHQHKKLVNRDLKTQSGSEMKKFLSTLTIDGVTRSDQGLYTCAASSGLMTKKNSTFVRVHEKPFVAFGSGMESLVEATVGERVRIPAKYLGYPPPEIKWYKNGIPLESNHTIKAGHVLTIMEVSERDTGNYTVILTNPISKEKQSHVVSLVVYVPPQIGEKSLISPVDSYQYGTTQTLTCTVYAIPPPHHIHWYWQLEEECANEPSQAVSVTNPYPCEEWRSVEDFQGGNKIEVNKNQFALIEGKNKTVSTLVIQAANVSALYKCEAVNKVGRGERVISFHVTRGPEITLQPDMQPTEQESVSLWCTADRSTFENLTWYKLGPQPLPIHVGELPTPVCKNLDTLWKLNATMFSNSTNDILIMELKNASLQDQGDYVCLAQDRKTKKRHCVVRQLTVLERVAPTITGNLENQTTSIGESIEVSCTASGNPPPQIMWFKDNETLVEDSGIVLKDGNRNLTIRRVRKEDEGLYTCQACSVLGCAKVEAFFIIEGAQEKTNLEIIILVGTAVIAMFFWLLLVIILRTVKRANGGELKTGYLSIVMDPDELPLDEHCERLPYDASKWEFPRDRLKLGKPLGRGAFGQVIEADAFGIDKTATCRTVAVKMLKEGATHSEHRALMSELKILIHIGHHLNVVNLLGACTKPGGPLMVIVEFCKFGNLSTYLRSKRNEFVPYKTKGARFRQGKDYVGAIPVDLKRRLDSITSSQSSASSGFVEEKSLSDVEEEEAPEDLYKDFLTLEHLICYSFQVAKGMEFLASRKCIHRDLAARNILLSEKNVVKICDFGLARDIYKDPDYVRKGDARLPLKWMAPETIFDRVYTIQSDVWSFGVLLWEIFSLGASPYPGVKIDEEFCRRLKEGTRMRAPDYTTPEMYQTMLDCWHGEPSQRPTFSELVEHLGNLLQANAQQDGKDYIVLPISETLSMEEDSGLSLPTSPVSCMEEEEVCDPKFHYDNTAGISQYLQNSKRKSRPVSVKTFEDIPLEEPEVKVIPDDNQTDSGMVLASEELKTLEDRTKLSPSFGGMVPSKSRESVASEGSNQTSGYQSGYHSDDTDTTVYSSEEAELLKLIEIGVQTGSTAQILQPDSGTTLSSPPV

IKKα = IKKα (Homo sapiens (Human), UniProt O15111); assay: Kinase inhibition assay (KinaseProfiler, 33P-ATP); type: biochemical; conditions: IKKα(h), read-out: The percentage of the remaining active protein
MDA-MB-468 = assay: Cell proliferation inhibition assay (MTT); type: cell-based; conditions: Homo sapiens; MDA-MB-468; MTT, 72 hours; read-out: Proliferation inhibitory activity IC50
A375 = assay: Cell proliferation inhibition assay (MTT); type: cell-based; conditions: Homo sapiens, A-375; A375; MTT, 72 hours; read-out: Proliferation inhibitory activity IC50
EGFR = EGFR (Homo sapiens (Human), UniProt P00533); assay: Kinase inhibition assay (KinaseProfiler, 33P-ATP); type: biochemical; conditions: EGFR(h), read-out: The percentage of the remaining active protein
HT29 = assay: Cell proliferation inhibition assay (MTT); type: cell-based; conditions: Homo sapiens, HT-29; HT29; MTT, 72 hours; read-out: Proliferation inhibitory activity IC50
MDA-MB-231 = assay: Cell proliferation inhibition assay (MTT); type: cell-based, human; conditions: Homo sapiens, MDA-MB-231, MTT, 72 hours
plc/prf/5 = assay: Cell proliferation inhibition assay (MTT); type: cell-based; conditions: Homo sapiens, 72 hours, read-out: Proliferation inhibitory activity IC50
RAMOS = assay: Cell proliferation inhibition assay (MTT); type: cell-based; conditions: Homo sapiens; RAMOS; MTT, 72 hours; read-out: Proliferation inhibitory activity IC50
Abl = Abl (Homo sapiens (Human), UniProt P00519); assay: Kinase inhibition assay (KinaseProfiler, 33P-ATP); type: biochemical; conditions: Abl(h); 10 μM; read-out: The percentage of the remaining active protein
[1] = read-out: Proliferation inhibitory activity IC50
[2] = read-out: Proliferative inhibitory activity MDA-MB-231 (IC50 class)

IC50 (SW1990): 0.206 µM
remaining activity at 10 µM (Lyn; compound at 10 μM): 0%
remaining activity at 10 µM (JNK1α1(h); compound at 10 μM): 36%
IC50 (BT474): > 10 µM
remaining activity at 10 µM (TBK1(h); compound at 10 μM): 83%
remaining activity at 10 µM (TrkA; compound at 10 μM): 14%
IC50 (DDR1): 0.004 µM
remaining activity at 10 µM (Yes; compound at 10 μM): 0%
IC50 (Yes): < 0.001 µM
remaining activity at 10 µM (Met(h); compound at 10 μM): 102%
remaining activity at 10 µM (EphA8(h); compound at 10 μM): -4%
remaining activity at 10 µM (Axl; compound at 10 μM): 15%
remaining activity at 10 µM (ALK(h); compound at 10 μM): 33%
remaining activity at 10 µM (MEK1(h)): 52%
IC50 (EphB4; EphB4, ATP at Km): 0.011 µM
remaining activity at 10 µM (FAK(h); compound at 10 μM): 26%
remaining activity at 10 µM (CDK7; CDK7, compound at 10 μM): 70%
remaining activity at 10 µM (Itk(h); compound at 10 μM): 92%
IC50 (A549): 1.42 µM
remaining activity at 10 µM (ErbB2; compound at 10 μM): 2%
IC50 (ErbB2): 0.251 µM
remaining activity at 10 µM (PKBα(h); compound at 10 μM): 56%
remaining activity at 10 µM (RIPK2(h); compound at 10 μM): 15%
remaining activity at 10 µM (KDR; compound at 10 μM): 3%
IC50 (KDR; KDR, ATP at Km): 0.012 µM
remaining activity at 10 µM (IKKα; compound at 10 μM): 14%
IC50 (MDA-MB-468): 3.22 µM
IC50 (A375): 0.0266 µM
remaining activity at 10 µM (EGFR; compound at 10 μM): 15%
IC50 (HT29): 0.35 µM
IC50 (MDA-MB-231; [1]): 0.0153 µM
IC50 (MDA-MB-231; [2]): < 0.1 µM
SMILES: Cc1ccc(NC(=O)c2cccc(C(F)(F)F)c2)cc1C#Cc1nn(C2CCN(C)CC2)c2ncnc(N)c12 [Compound 31]
IC50 (CFPAC): 0.472 µM
IC50 (plc/prf/5): 3.97 µM

remaining activity at 10 µM (Lyn; 10 μM): 0%
IC50 (Lyn; Lyn, ATP at Km): 0.004 µM
remaining activity at 10 µM (JNK1α1(h); 10 μM): 35%
IC50 (BT474): > 10 µM
remaining activity at 10 µM (TBK1(h); 10 μM): 104%
remaining activity at 10 µM (TrkA; 10 μM): 72%
remaining activity at 10 µM (DDR1; DDR1(h), 10 μM, read-out: The percentage of the remaining active protein): -2%
IC50 (DDR1): 0.015 µM
IC50 (RAMOS): ~10 µM
remaining activity at 10 µM (Yes; 10 μM): 0%
IC50 (Yes): 0.001 µM
remaining activity at 10 µM (Met(h); 10 μM): 133%
remaining activity at 10 µM (EphA8(h); 10 μM): 2%
remaining activity at 10 µM (Axl; 10 μM): 56%
remaining activity at 10 µM (ALK(h); 10 μM): 92%
remaining activity at 10 µM (MEK1(h)): 34%
remaining activity at 10 µM (EphB4; EphB4(h), 10 μM, read-out: The percentage of the remaining active protein): 1%
remaining activity at 10 µM (Abl): -3%
remaining activity at 10 µM (FAK(h); 10 μM): 45%
remaining activity at 10 µM (CDK7; CDK7/cyclinH/MAT1(h), 10 μM): 103%
remaining activity at 10 µM (Itk(h); 10 μM): 102%
IC50 (A549): > 10 µM
remaining activity at 10 µM (ErbB2; 10 μM): 4%
IC50 (ErbB2): 0.165 µM
remaining activity at 10 µM (PKBα(h); 10 μM): 101%
remaining activity at 10 µM (RIPK2(h); 10 μM): 21%
remaining activity at 10 µM (KDR; 10 μM): 2%
remaining activity at 10 µM (IKKα; 10 μM): 7%
IC50 (A375): ~0.03 µM
remaining activity at 10 µM (EGFR; 10 μM): 11%
IC50 (HT29): 0.23 µM
IC50 (MDA-MB-231; [1]): 0.03 µM
IC50 (MDA-MB-231; [2]): < 0.1 µM
SMILES: Cc1ccc(NC(=O)c2ccc(C)c(C(F)(F)F)c2)cc1C#Cc1nn([C@H]2CC[C@H](O)CC2)c2ncnc(N)c12 [Compound 93]
IC50 (plc/prf/5): ~10 µM

From patent US10266537B2, “3-acetylenyl-pyrazole-pyrimidine derivative, and preparation method therefor and uses thereof” (Si Chuan University, priority 2015, dated 2019)
